Results reported in the CheMixHub viscosity set.

Test: xn = mol fraction of the nth substance listed

CCC1CCCCC1 + CCCCCCCCCC(=O)OCC
viscosity [mPa·s], 100 kPa
Conditions	x1 = 0.1001	x1 = 0.1999	x1 = 0.3001	x1 = 0.4	x1 = 0.5002	x1 = 0.5998	x1 = 0.7	x1 = 0.8	x1 = 0.9001
293.15 K	2.153	1.979	1.807	1.642	1.487	1.342	1.204	1.079	0.96
298.15 K	1.963	1.807	1.655	1.51	1.373	1.242	1.12	1.007	0.9
303.15 K	1.778	1.642	1.51	1.382	1.261	1.146	1.038	0.936	0.84
308.15 K	1.626	1.503	1.384	1.271	1.165	1.063	0.966	0.873	0.786
313.15 K	1.494	1.385	1.276	1.174	1.078	0.987	0.9	0.815	0.734
318.15 K	1.377	1.279	1.185	1.095	1.01	0.928	0.846	0.767	0.692
323.15 K	1.27	1.184	1.102	1.021	0.943	0.867	0.793	0.722	0.652

CCCCCCCCCO + CCCCCCCCO
viscosity [mPa·s], 101.8 kPa
Conditions	x2 = 0.1095	x2 = 0.3227	x2 = 0.5251	x2 = 0.7208	x2 = 0.9082
298.15 K	9.3	8.885	8.493	8.137	7.796
308.15 K	6.575	6.317	6.057	5.821	5.595
318.15 K	4.761	4.579	4.408	4.248	4.093

CC(=O)N(C)C + CCCCn1cc[n+](C)c1.F[B-](F)(F)F
101.33 kPa
Conditions	viscosity [mPa·s]
293.15 K, x2 = 0.8488	74.2
293.15 K, x2 = 0.9175	95.64
298.15 K, x2 = 0.9175	80.5
308.15 K, x2 = 0.437	7.88
323.15 K, x2 = 0.7419	9.78

CC1CCCCC1=O (configuration not stated) + CN(C)C=O
viscosity [mPa·s], 100 kPa
Conditions	x1 = 0.0825	x1 = 0.1712	x1 = 0.2787	x1 = 0.3863	x1 = 0.4889	x1 = 0.5801	x1 = 0.6819	x1 = 0.7805	x1 = 0.8801
303.15 K	0.889	1.027	1.192	1.353	1.505	1.638	1.783	1.921	2.06
308.15 K	0.85	0.987	1.15	1.309	1.459	1.59	1.735	1.872	2.009
313.15 K	0.81	0.948	1.108	1.266	1.413	1.543	1.688	1.824	1.959

CC(=O)N1CCOCC1 + CCO
viscosity [mPa·s], 101 kPa
Conditions	293.15 K	303.15 K	313.15 K	323.15 K
x1 = 0.0563	1.847	1.495	1.153	0.928
x1 = 0.1288	2.747	2.302	1.832	1.518
x1 = 0.2164	3.689	3.134	2.511	2.096
x1 = 0.2843	4.374	3.728	2.983	2.484
x1 = 0.3147	4.656	3.974	3.174	2.639
x1 = 0.3944	5.318	4.533	3.594	2.966
x1 = 0.4512	5.718	4.858	3.819	3.122
x1 = 0.4957	6.016	5.101	3.983	3.232
x1 = 0.5253	6.179	5.227	4.056	3.269
x1 = 0.5832	6.499	5.472	4.199	3.343
x1 = 0.6341	6.728	5.638	4.275	3.358
x1 = 0.6813	6.984	5.832	4.387	3.413
x1 = 0.7348	7.169	5.948	4.407	3.369
x1 = 0.7921	7.459	6.164	4.522	3.417
x1 = 0.8452	7.653	6.289	4.554	3.434
x1 = 0.9127	8.019	6.569	4.788	3.615
x1 = 0.9734	8.395	6.932	5.046	3.797

CCCCCCCCCO + c1ccccc1
viscosity [mPa·s], 100 kPa
Conditions	x2 = 0.0841	x2 = 0.1721	x2 = 0.2502	x2 = 0.3634	x2 = 0.4529	x2 = 0.5631	x2 = 0.6508	x2 = 0.7569	x2 = 0.8448	x2 = 0.9503
293.15 K	9.518	7.891	6.648	5.055	3.95	2.851	2.158	1.469	1.089	0.766
303.15 K	6.477	5.231	4.302	3.268	2.618	1.931	1.474	1.067	0.824	0.628
313.15 K	4.537	3.665	3.011	2.228	1.762	1.327	1.045	0.807	0.675	0.542
323.15 K	3.323	2.677	2.203	1.656	1.318	1.005	0.817	0.662	0.56	0.474

CC(=O)N1CCOCC1 + CCCCO
viscosity [mPa·s], 101 kPa
Conditions	293.15 K	303.15 K	313.15 K	323.15 K
x1 = 0.0555	4.367	3.576	2.739	1.957
x1 = 0.1321	5.668	4.813	3.879	3.051
x1 = 0.2165	6.805	5.881	5.042	4.16
x1 = 0.2844	7.59	6.613	5.581	4.657
x1 = 0.3126	7.757	6.756	5.6	4.662
x1 = 0.4042	8.369	7.294	6.023	5.03
x1 = 0.4673	8.697	7.57	6.22	5.191
x1 = 0.5033	8.878	7.734	6.31	5.257
x1 = 0.5562	9.001	7.801	6.341	5.256
x1 = 0.6237	9.088	7.833	6.29	5.164
x1 = 0.6431	8.989	7.719	6.152	5.014
x1 = 0.6903	9.041	7.732	6.105	4.937
x1 = 0.7439	8.864	7.512	5.819	4.62
x1 = 0.7911	8.713	7.322	5.569	4.342
x1 = 0.8624	8.88	7.431	5.591	4.32
x1 = 0.9222	8.663	7.164	5.249	3.943
x1 = 0.9785	8.737	7.193	5.209	3.868

NCCNCCO.O=S(=O)([N-]S(=O)(=O)C(F)(F)F)C(F)(F)F.[Li+] + O
323.15 K, 101 kPa
Conditions	viscosity [mPa·s]
x1 = 0.0304	1.63
x1 = 0.06	3.61
x1 = 0.0997	7.57
x1 = 0.2003	27.72
x1 = 0.3009	65.11
x1 = 0.3955	114.4
x1 = 0.4975	184.4
x1 = 0.599	272.2
x1 = 0.7014	372.3
x1 = 0.8015	486.8
x1 = 0.8978	605.3

Cc1cccc2ccccc12 + CC(CC(C)(C)C)CC(C)(C)CC(C)(C)C
viscosity [mPa·s], 100 kPa
Conditions	x1 = 0.125	x1 = 0.25	x1 = 0.375	x1 = 0.5	x1 = 0.625	x1 = 0.75	x1 = 0.875
293.15 K	3.46	3.24	3.09	2.97	2.88	2.9	3.02
303.15 K	2.75	2.61	2.47	2.38	2.32	2.33	2.4
313.15 K	2.29	2.14	2.02	1.95	1.9	1.91	1.97
323.15 K	1.86	1.76	1.7	1.64	1.6	1.61	1.64

CCCCCCCCCO + CCO
viscosity [mPa·s], 101 kPa
Conditions	298.15 K	308.15 K	318.15 K
x2 = 0.05	8.632	6.193	4.473
x2 = 0.1	8.168	5.872	4.273
x2 = 0.15	7.706	5.558	4.073
x2 = 0.2	7.247	5.25	3.874
x2 = 0.25	6.791	4.945	3.675
x2 = 0.3	6.34	4.645	3.475
x2 = 0.35	5.893	4.347	3.275
x2 = 0.4	5.453	4.052	3.074
x2 = 0.45	5.019	3.759	2.871
x2 = 0.5	4.593	3.469	2.668
x2 = 0.55	4.176	3.182	2.465
x2 = 0.6	3.769	2.898	2.261
x2 = 0.65	3.375	2.619	2.059
x2 = 0.7	2.993	2.345	1.858
x2 = 0.75	2.627	2.078	1.66
x2 = 0.8	–	1.818	1.466
x2 = 0.85	1.946	1.569	1.277
x2 = 0.9	1.635	1.331	1.094
x2 = 0.95	1.346	1.108	0.9197

CCC1CCCCC1 + CCCCCO
viscosity [mPa·s], 100 kPa
Conditions	x2 = 0.1003	x2 = 0.2013	x2 = 0.3005	x2 = 0.4001	x2 = 0.5004	x2 = 0.5995	x2 = 0.7009	x2 = 0.8003	x2 = 0.9007
293.15 K	0.91	0.99	1.108	1.248	1.489	1.788	2.169	2.681	3.292
298.15 K	0.845	0.915	1.024	1.177	1.339	1.613	1.948	2.339	2.862
303.15 K	0.785	0.848	0.943	1.071	1.21	1.425	1.724	2.056	2.495
308.15 K	0.728	0.778	0.855	0.942	1.087	1.263	1.501	1.796	2.166
313.15 K	0.682	0.73	0.801	0.882	0.998	1.156	1.337	1.602	1.92
318.15 K	0.651	0.693	0.752	0.834	0.929	1.061	1.246	1.454	1.723
323.15 K	0.61	0.647	0.697	0.773	0.849	0.959	1.115	1.294	1.529

CC(=O)N(C)C + COC(=O)OC
298.15 K, 101 kPa
Conditions	viscosity [mPa·s]
x2 = 0.0376	0.937
x2 = 0.0836	0.914
x2 = 0.1443	0.887
x2 = 0.2234	0.854
x2 = 0.3348	0.807
x2 = 0.4705	0.757
x2 = 0.5544	0.726
x2 = 0.6212	0.702
x2 = 0.6902	0.679
x2 = 0.7541	0.659
x2 = 0.8244	0.636
x2 = 0.9102	0.608

CCCCCC[n+]1ccn(C)c1.O=[N+]([O-])[O-] + CCC(C)O
Conditions	viscosity [mPa·s]
298.15 K, 100 kPa, x1 = 0.7392	237.5
